1 compound from publication PMC3336937 (2012) can be followed below.

This test deals with T1, KcsA (Streptomyces lividans, UniProt P0A334).
T1 sequence (P0A334 1-160): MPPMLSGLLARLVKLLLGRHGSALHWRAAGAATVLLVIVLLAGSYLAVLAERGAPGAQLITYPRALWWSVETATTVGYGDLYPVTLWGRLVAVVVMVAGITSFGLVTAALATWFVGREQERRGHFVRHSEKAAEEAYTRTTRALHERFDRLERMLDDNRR
Nature of the test: Trp fluorescence quenching, purified reconstituted wild-type KcsA. The format is binding.

Molecules are shown by their SMILES.

Turning to `CCCCCCCCC(Br)C(Br)CCCCCCCC(=O)O` (stereo not shown) [BrSA, 9,10-dibromostearic acid], the “Trp fluorescence quenching, purified reconstituted wild-type KcsA; binding const” value is 0.67 ± 0.04.
